The numbers were not newly measured in US7214684B2, “Methods for the treatment of allergic rhinitis” (Sepracor Inc., priority 1994, dated 2007), which cites them from elsewhere.

The structures appear in SMILES notation.

The test system of data set [1] is melanoma and fibrosarcoma tumors. Conditions: Brandes et al. 1994.
Data set [2] deals with H-2 histamine receptor (Homo sapiens, UniProt P25021). Conditions: H-2 receptor-mediated response.
H-2 histamine receptor, sequence (P25021 whole entry): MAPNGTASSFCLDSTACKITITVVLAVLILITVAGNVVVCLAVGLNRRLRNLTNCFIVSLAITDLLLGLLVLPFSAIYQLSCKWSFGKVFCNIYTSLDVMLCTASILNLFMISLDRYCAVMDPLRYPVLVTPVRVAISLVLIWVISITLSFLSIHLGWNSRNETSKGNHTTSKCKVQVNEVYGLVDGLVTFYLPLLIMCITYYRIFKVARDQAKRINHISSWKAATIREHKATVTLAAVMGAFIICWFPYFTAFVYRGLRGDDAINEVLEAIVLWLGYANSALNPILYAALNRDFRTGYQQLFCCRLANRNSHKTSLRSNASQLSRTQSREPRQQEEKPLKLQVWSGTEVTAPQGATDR

`CCOC(=O)N1CCC(=C2c3ccc(Cl)cc3CCc3cccnc32)CC1` [Loratadine]: the “association with tumor growth” value in data set [1] is “associated with growth of both melanoma and fibrosarcoma tumors”. Further, in data set [2], the “effect on the chronotropic effect of histamine on atria” value is on record as “nor does it alter”.

Consider `COc1ccc(CCN2CCC(Nc3nc4ccccc4n3Cc3ccc(F)cc3)CC2)cc1` [astemizole], for which the “association with tumor growth” value in data set [1] was “associated with growth of both melanoma and fibrosarcoma tumors”.
